In PubChem BioAssay AID248 (DTP/NCI, 2004):
Values joined by “and” are separate entries in the source; they are usually repeats but may differ in a detail not shown here. Identical values can stand only once. Toxic doses and inconclusive results are not listed. Rule as the data show it: active = T/C of 150% or more; inactive = T/C below 125%.

System: L1210 leukemia ip in BDF1 mice, survival T/C
Assay: NCI In Vivo Anticancer Drug Screen. Data for tumor model L1210 Leukemia (intraperitoneal) in B6D2F1 (BDF1) mice
Details: endpoint: mean survival time, higher = longer survival
How it was run: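 Antitumor effect is assessed in tumor-bearing animals. Survival in the compound arm is compared with a vehicle-dosed control arm and expressed as their quotient.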

[1] = dose: 100.0 mg/kg/injection, schedule: Q01DX001 (ip), vehicle: saline
[2] = dose: 200.0 mg/kg/injection, schedule: Q01DX001 (ip), vehicle: saline
[3] = dose: 400.0 mg/kg/injection, schedule: Q01DX001 (ip), vehicle: saline
[4] = dose: 100.0 mg/kg/injection, schedule: Q04DX002 (ip), vehicle: saline with Tween-80
[5] = dose: 200.0 mg/kg/injection, schedule: Q04DX002 (ip), vehicle: saline with Tween-80
[6] = dose: 25.0 mg/kg/injection, schedule: Q01DX009 (ip), vehicle: Klucel (hydroxypropylcellulose) (HPC)
[7] = dose: 50.0 mg/kg/injection, schedule: Q01DX009 (ip), vehicle: Klucel (hydroxypropylcellulose) (HPC)
[8] = dose: 100.0 mg/kg/injection, schedule: Q04DX002 (ip), vehicle: Klucel (hydroxypropylcellulose) (HPC)
[9] = dose: 200.0 mg/kg/injection, schedule: Q04DX002 (ip), vehicle: Klucel (hydroxypropylcellulose) (HPC)
[10] = dose: 400.0 mg/kg/injection, schedule: Q04DX002 (ip), vehicle: Klucel (hydroxypropylcellulose) (HPC)
[11] = dose: 100.0 mg/kg/injection, schedule: Q04DX003 (ip), vehicle: Klucel (hydroxypropylcellulose) (HPC)

Measured: T/C

CN(C)[C@@H]1C(=O)C(C(=O)NCNc2nc3n[nH]nc3c(=O)[nH]2)=C(O)[C@@]2(O)C(=O)C3=C(O)c4c(O)cccc4[C@@](C)(O)[C@H]3C[C@@H]12
inactive: dose: 12.5 mg/kg/injection, schedule: Q01DX009 (ip), vehicle: acetone 98 % of control | dose: 25.0 mg/kg/injection, schedule: Q01DX009 (ip), vehicle: acetone 104 % of control | dose: 50.0 mg/kg/injection, schedule: Q01DX009 (ip), vehicle: acetone 122 % of control | [1] 102 % of control | dose: 100.0 mg/kg/injection, schedule: Q01DX009 (ip), vehicle: acetone 117 % of control | [2] 96 % of control | dose: 200.0 mg/kg/injection, schedule: Q01DX009 (ip), vehicle: acetone 122 % of control | [3] 105 % of control

Clc1ccc2c(c1)Sc1ccc(Cl)cc1S2
inactive: [4] 101 % of control | [5] 101 % of control | dose: 400.0 mg/kg/injection, schedule: Q04DX002 (ip), vehicle: saline with Tween-80 97 % of control

C(=NCC(CCN1CCCCC1)(CCN1CCCCC1)c1cccc2ccccc12)C(CCN1CCCCC1)(CCN1CCCCC1)c1cccc2ccccc12
inactive: dose: 5.0 mg/kg/injection, schedule: Q04DX003 (ip), vehicle: Klucel (hydroxypropylcellulose) (HPC) 119 % of control | dose: 10.0 mg/kg/injection, schedule: Q04DX003 (ip), vehicle: Klucel (hydroxypropylcellulose) (HPC) 114 % of control | dose: 20.0 mg/kg/injection, schedule: Q04DX003 (ip), vehicle: Klucel (hydroxypropylcellulose) (HPC) 110 % of control

CS(=O)(=O)N(CC(=O)O)Cc1ccc(F)cc1
inactive: dose: 100.0 mg/kg/injection, schedule: Q01DX009 (ip), vehicle: other 103 % of control | dose: 100.0 mg/kg/injection, schedule: Q04DX003 (ip), vehicle: other 98 % of control | dose: 200.0 mg/kg/injection, schedule: Q01DX009 (ip), vehicle: other 102 % of control | dose: 200.0 mg/kg/injection, schedule: Q04DX003 (ip), vehicle: other 104 % of control | dose: 400.0 mg/kg/injection, schedule: Q01DX009 (ip), vehicle: other 97 % of control | dose: 400.0 mg/kg/injection, schedule: Q04DX003 (ip), vehicle: other 94 % of control

CCCNC(=O)Sc1ccc(C(C)(C)C)cc1
inactive: dose: 25.0 mg/kg/injection, schedule: Q01DX001 (ip), vehicle: Klucel (hydroxypropylcellulose) (HPC) 91 % of control | [6] 95 % of control and 104 % of control | dose: 50.0 mg/kg/injection, schedule: Q01DX001 (ip), vehicle: Klucel (hydroxypropylcellulose) (HPC) 91 % of control | [7] 98 % of control and 112 % of control | dose: 100.0 mg/kg/injection, schedule: Q01DX001 (ip), vehicle: Klucel (hydroxypropylcellulose) (HPC) 93 % of control | dose: 100.0 mg/kg/injection, schedule: Q01DX009 (ip), vehicle: Klucel (hydroxypropylcellulose) (HPC) 93 % of control and 102 % of control and 104 % of control | [8] 95 % of control and 89 % of control | [9] 96 % of control and 97 % of control | [10] 92 % of control and 93 % of control

CCCCCCCCc1c(C)nc(N)[nH]c1=O
inactive: [8] 100 % of control | [9] 100 % of control | [10] 104 % of control

CCOC(=O)n1cnc2c(Cl)ncnc21
inactive: dose: 100.0 mg/kg/injection, schedule: Q01DX001 (ip), vehicle: other 109 % of control | dose: 200.0 mg/kg/injection, schedule: Q01DX001 (ip), vehicle: other 102 % of control | dose: 400.0 mg/kg/injection, schedule: Q01DX001 (ip), vehicle: other 110 % of control

COC(=O)c1ccc(OC(C)OCCCl)cc1 (stereo not drawn)
inactive: dose: 100.0 mg/kg/injection, schedule: Q04DX002 (ip), vehicle: saline 93 % of control | dose: 200.0 mg/kg/injection, schedule: Q04DX002 (ip), vehicle: saline 96 % of control | dose: 400.0 mg/kg/injection, schedule: Q04DX002 (ip), vehicle: saline 96 % of control

CC(=O)C(C#N)c1ccccc1 (stereo not drawn)
inactive: [6] 98 % of control | dose: 25.0 mg/kg/injection, schedule: Q04DX003 (ip), vehicle: Klucel (hydroxypropylcellulose) (HPC) 100 % of control | [7] 96 % of control | dose: 50.0 mg/kg/injection, schedule: Q04DX003 (ip), vehicle: Klucel (hydroxypropylcellulose) (HPC) 100 % of control | [11] 97 % of control

Nc1ccc2nc3ccc(N)cc3[n+](-c3ccccc3)c2c1
inactive: dose: 5.0 mg/kg/injection, schedule: Q01DX001 (ip), vehicle: other 111 % of control | dose: 10.0 mg/kg/injection, schedule: Q01DX001 (ip), vehicle: other 108 % of control | dose: 18.0 mg/kg/injection, schedule: Q01DX001 (ip), vehicle: other 101 % of control and 103 % of control | dose: 20.0 mg/kg/injection, schedule: Q01DX001 (ip), vehicle: other 108 % of control | dose: 27.0 mg/kg/injection, schedule: Q01DX001 (ip), vehicle: other 106 % of control and 118 % of control | dose: 40.0 mg/kg/injection, schedule: Q01DX001 (ip), vehicle: other 110 % of control and 114 % of control | dose: 60.0 mg/kg/injection, schedule: Q01DX001 (ip), vehicle: other 104 % of control

C[n+]1ccc(/C=C/C(=O)Nc2ccccc2)cc1
inactive: [11] 104 % of control | dose: 200.0 mg/kg/injection, schedule: Q04DX003 (ip), vehicle: Klucel (hydroxypropylcellulose) (HPC) 108 % of control | dose: 400.0 mg/kg/injection, schedule: Q04DX003 (ip), vehicle: Klucel (hydroxypropylcellulose) (HPC) 98 % of control

Cc1ccc(S(=O)(=O)N(c2cc(C)ccc2C)c2ccccc2N)cc1
inactive: dose: 50.0 mg/kg/injection, schedule: Q01DX001 (ip), vehicle: saline 93 % of control | [1] 95 % of control | [2] 98 % of control | [3] 93 % of control

O=S(=O)(O)CCCN1CCCCC1
inactive: dose: 100.0 mg/kg/injection, schedule: Q01DX009 (ip), vehicle: saline 107 % of control | dose: 200.0 mg/kg/injection, schedule: Q01DX009 (ip), vehicle: saline 112 % of control | dose: 400.0 mg/kg/injection, schedule: Q01DX009 (ip), vehicle: saline 98 % of control

CC(C(=O)O)N1C(=O)C2C3C=CC(C3)C2C1=O (stereo not drawn)
inactive: dose: 100.0 mg/kg/injection, schedule: Q04DX003 (ip), vehicle: saline with Tween-80 94 % of control | dose: 200.0 mg/kg/injection, schedule: Q04DX003 (ip), vehicle: saline with Tween-80 102 % of control | dose: 400.0 mg/kg/injection, schedule: Q04DX003 (ip), vehicle: saline with Tween-80 97 % of control

CCCCOC(=O)COc1cc(Cl)c(Cl)cc1Cl
inactive: [4] 93 % of control | [5] 104 % of control

c1ccc(-c2nc(-c3ccccn3)nc(-c3ccccn3)n2)nc1
inactive: dose: 5.0 mg/kg/injection, schedule: Q01DX001 (ip), vehicle: saline 107 % of control | dose: 10.0 mg/kg/injection, schedule: Q01DX001 (ip), vehicle: saline 96 % of control | dose: 20.0 mg/kg/injection, schedule: Q01DX001 (ip), vehicle: saline 100 % of control | dose: 40.0 mg/kg/injection, schedule: Q01DX001 (ip), vehicle: saline 93 % of control | dose: 80.0 mg/kg/injection, schedule: Q01DX001 (ip), vehicle: saline 91 % of control

O=C1c2ccccc2C(=O)N1c1ncc2ccccc2n1
inactive: dose: 100.0 mg/kg/injection, schedule: Q01DX001 (ip), vehicle: saline with Tween-80 101 % of control | dose: 200.0 mg/kg/injection, schedule: Q01DX001 (ip), vehicle: saline with Tween-80 92 % of control | dose: 400.0 mg/kg/injection, schedule: Q01DX001 (ip), vehicle: saline with Tween-80 95 % of control
